Test results from the NIST ThermoML archive (doi:10.1016/j.jct.2018.08.036).
“And” between values parts separate entries of the source, which are not always exact repeats. Equal values may be shown once. Numbers after ± are expanded uncertainties.

Columns and labels:
[1] = 100 kPa, Liquid; for speed of sound: Frequency=3 MHz, Single path-length method; for mass density: Vibrating tube method; for viscosity: Falling or rolling sphere viscometry
[2] = refractive index (Na D-line) (dimensionless); conditions: 100 kPa, Liquid, Standard Abbe refractometry
[3] = xn = mol fraction of the nth substance listed; conditions: 100 kPa, Liquid, x1 = 1; for viscosity: Falling or rolling sphere viscometry; for speed of sound: Frequency=3 MHz, Single path-length method; for mass density: Vibrating tube method
[4] = refractive index (Na D-line) (dimensionless); xn = mol fraction of the nth substance listed; conditions: 100 kPa, Liquid, Standard Abbe refractometry, x1 = 1

CCC(C)c1ccccc1 (centres undefined) [(1-methylpropyl)benzene]
Conditions | mass density, [1] [kg/m3] | refractive index, [2] | speed of sound, [1] [m/s] | viscosity, [1] [mPa·s]
293.15 K | 861.95 ± 0.42 | 1.49 ± 0.0004 | 1333.8 ± 1 | –
298.15 K | 857.89 ± 0.42 | 1.4876 ± 0.0004 | 1313.8 ± 1 | 0.912 ± 0.021
308.15 K | 849.78 ± 0.42 | 1.4827 ± 0.0004 | 1274.5 ± 1 | 0.796 ± 0.021
318.15 K | 841.64 ± 0.42 | 1.4778 ± 0.0004 | 1235.7 ± 1 | 0.707 ± 0.021
323.15 K | 837.48 ± 0.42 | 1.4753 ± 0.0004 | 1216.1 ± 1 | –

CCCCCCCCCCCCCCCC [hexadecane] + CCCc1ccccc1
Conditions | mass density, [3] [kg/m3] | refractive index, [4] | speed of sound, [3] [m/s] | viscosity, [3] [mPa·s]
298.15 K | 769.86 ± 0.42 | 1.4324 ± 0.0004 | 1338.6 ± 1 | 2.968 ± 0.064
308.15 K | 762.94 ± 0.42 | 1.4283 ± 0.0004 | 1301.3 ± 1 | 2.389 ± 0.063
318.15 K | 755.99 ± 0.42 | 1.4241 ± 0.0004 | 1264.6 ± 1 | 1.971 ± 0.062

CCCCCCCCCCCCCCCC [hexadecane]
Conditions | mass density, [1] | refractive index, [2] | speed of sound, [1] | viscosity, [1]
293.15 K | 773.33 ± 0.42 kg/m3 | 1.4345 ± 0.0004 | 1357.5 ± 1 m/s | 3.341 ± 0.065 mPa·s
298.15 K | 769.86 ± 0.42 kg/m3 and 769.81 ± 0.42 kg/m3 | 1.4324 ± 0.0004 | 1338.6 ± 1 m/s and 1338.5 ± 1 m/s | 2.968 ± 0.064 mPa·s and 3.035 ± 0.065 mPa·s
303.15 K | 766.4 ± 0.42 kg/m3 | 1.4304 ± 0.0004 | 1319.9 ± 1 m/s | 2.656 ± 0.064 mPa·s
308.15 K | 762.94 ± 0.42 kg/m3 and 762.89 ± 0.42 kg/m3 | 1.4283 ± 0.0004 | 1301.3 ± 1 m/s and 1301.2 ± 1 m/s | 2.389 ± 0.063 mPa·s and 2.439 ± 0.063 mPa·s
313.15 K | 759.48 ± 0.42 kg/m3 | 1.4261 ± 0.0004 | 1282.9 ± 1 m/s | 2.164 ± 0.062 mPa·s
318.15 K | 755.99 ± 0.42 kg/m3 and 755.98 ± 0.42 kg/m3 | 1.4241 ± 0.0004 | 1264.6 ± 1 m/s and 1264.7 ± 1 m/s | 1.971 ± 0.062 mPa·s and 2.008 ± 0.062 mPa·s
323.15 K | 752.58 ± 0.42 kg/m3 | 1.422 ± 0.0004 | 1246.6 ± 1 m/s | 1.8 ± 0.062 mPa·s

CCCCCCCCCCCCCCCC [hexadecane] + CCC(C)c1ccccc1
Conditions | mass density, [3] [kg/m3] | refractive index, [4] | speed of sound, [3] [m/s] | viscosity, [3] [mPa·s]
298.15 K | 769.81 ± 0.42 | 1.4324 ± 0.0004 | 1338.5 ± 1 | 3.035 ± 0.064
308.15 K | 762.89 ± 0.42 | 1.4283 ± 0.0004 | 1301.2 ± 1 | 2.439 ± 0.063
318.15 K | 755.98 ± 0.42 | 1.4241 ± 0.0004 | 1264.7 ± 1 | 2.008 ± 0.062

CCCc1ccccc1 [propylbenzene]
Conditions | mass density, [1] [kg/m3] | refractive index, [2] | speed of sound, [1] [m/s] | viscosity, [1] [mPa·s]
288.15 K | – | – | – | 0.924 ± 0.021
293.15 K | 862.72 ± 0.22 | 1.4921 ± 0.0004 | 1341.5 ± 0.6 | 0.846 ± 0.021
298.15 K | 858.45 ± 0.22 | 1.4896 ± 0.0004 | 1320.6 ± 0.6 | 0.792 ± 0.021
303.15 K | 854.28 ± 0.22 | 1.487 ± 0.0004 | 1300.4 ± 0.6 | 0.742 ± 0.021
308.15 K | 850.01 ± 0.22 | 1.4844 ± 0.0004 | 1280.6 ± 0.6 | 0.699 ± 0.021
313.15 K | 845.81 ± 0.22 | 1.4818 ± 0.0004 | 1260.9 ± 0.6 | 0.655 ± 0.021
318.15 K | 841.53 ± 0.22 | 1.4792 ± 0.0004 | 1241 ± 0.6 | 0.626 ± 0.021
323.15 K | 837.31 ± 0.22 | 1.4766 ± 0.0004 | 1221.5 ± 0.6 | 0.601 ± 0.02
